# What was measured:
# [1] = test system: adult rabbit myocytes; assay: Contraction and calcium transients in isolated rabbit cardiomyocytes; type: cell-based
# Procedure: To test whether PDE1 inhibition directly impacts cardiomyocyte contraction and calcium transients, studies are carried out on normal adult rabbit myocytes. […] As PDE1 requires sufficient cAMP and Ca^2+ to be impactful, a dose response was performed to the adenylate cyclase activator, forskolin (FSK) to determine the lowest dose producing a modest but significant inotropic effect (1 μM).
# Rabbit myocytes were isolated to determine the effect of PDE1 inhibition on cardiomyocyte contraction and whole cell Ca2+ transients, and to compare the results to those with a PDE3 inhibitor, cilostamide (Cil, 1 μM).
# An alternative approach to augmenting cAMP independent of […] is to directly stimulate adenylate cyclase using forskolin (Fsk). A dose response study was carried out to identify a non-saturating Fsk dose that still generated significant inotropic effects (1 μM).
# [2] = test system: rabbit heart and vasculature; assay: Anesthetized rabbit pressure-volume hemodynamics with or without esmolol or MRS-1754; type: in vivo
# Text: Cyclic AMP is generated largely by transmembrane adenylyl cyclases activated via stimulatory G protein (Gs), with β-adrenergic, adenosine (primarily A2B), glucagon, prostanoids, histamine, and serotonin all coupling to Gs in cardiomyocytes. The present studies focus on beta-adrenergic and adenosine receptors, and for the latter, concentrated on the A2B receptor, which has been reported to directly stimulate cAMP-dependent contractility. […] Relaxation changes are also modest with LV preload (end-diastolic and volume) unaltered; however, the combined vasodilator-inotropic response doubled ventricular/arterial coupling ratio, Ees/Ea.
# (§1) New Zealand White rabbits (male, 2-3 kg) are sedated with 35 mg/kg ketamine and 5 mg/kg xylazine, intubated and ventilated (Model 683, Harvard Apparatus, Holliston, Mass.), with anesthesia maintained with isoflurane inhalation (1-2%). A pressure-volume catheter (SPR-894, Millar, Inc., Houston, Tex.) is inserted via the common carotid artery and advanced to the LV apex, and a 2-Fr pacing catheter is positioned in the right atrium via the right jugular vein to provide atrial pacing. […] The parallel conductance is determined by the hypertonic saline injection method. Rabbits are infused with 6% hetastarch in saline during the procedure to stabilize arterial pressure.
# [3] = test system: myocyte cAMP; assay: Whole cell cAMP in isolated rabbit myocytes; type: cell-based; settings: agent added to Fsk
# Text: This is consistent with prior studies showing locally generated cAMP from β-AR and its modulation by PDE3 occur in local subcellular domains that are not easily detected in whole cell lysates32.
# [4] = Plasma level in rabbits (LC/MS-MS); type: in vivo; settings: male, New Zealand White, iv, rabbit, 0.1 mg/kg i.v.
# Procedure: as §1
# Intravenous blood is placed in K2EDTA tubes, centrifuged at 2,000 g for 15 min, plasma decanted, and stored frozen. Compound 1 levels are assessed by a rapid, sensitive liquid chromatography-tandem mass spectrometric (LC/MS-MS) method.
# The mobile phase consists of a gradient of 60-100% methanol over 4.5 minutes in 5 mM ammonium bicarbonate with 0.2% NH3H2O, pumped at a flow rate of 0.8 mL/min. Analysis time is 4.5 min and both the analyte and internal standard eluted around 2.0 min. Multiple reactions monitoring (MRM) mode is used to detect Compound 1. MS is operated in the positive ion detection mode. […] The lower limit of quantification (LLOQ) for plasma was 0.02 ng/mL.
# [5] = target: PDE4D (Homo sapiens, UniProt Q08499)
# PDE4D, sequence (Q08499 whole entry, species assumed): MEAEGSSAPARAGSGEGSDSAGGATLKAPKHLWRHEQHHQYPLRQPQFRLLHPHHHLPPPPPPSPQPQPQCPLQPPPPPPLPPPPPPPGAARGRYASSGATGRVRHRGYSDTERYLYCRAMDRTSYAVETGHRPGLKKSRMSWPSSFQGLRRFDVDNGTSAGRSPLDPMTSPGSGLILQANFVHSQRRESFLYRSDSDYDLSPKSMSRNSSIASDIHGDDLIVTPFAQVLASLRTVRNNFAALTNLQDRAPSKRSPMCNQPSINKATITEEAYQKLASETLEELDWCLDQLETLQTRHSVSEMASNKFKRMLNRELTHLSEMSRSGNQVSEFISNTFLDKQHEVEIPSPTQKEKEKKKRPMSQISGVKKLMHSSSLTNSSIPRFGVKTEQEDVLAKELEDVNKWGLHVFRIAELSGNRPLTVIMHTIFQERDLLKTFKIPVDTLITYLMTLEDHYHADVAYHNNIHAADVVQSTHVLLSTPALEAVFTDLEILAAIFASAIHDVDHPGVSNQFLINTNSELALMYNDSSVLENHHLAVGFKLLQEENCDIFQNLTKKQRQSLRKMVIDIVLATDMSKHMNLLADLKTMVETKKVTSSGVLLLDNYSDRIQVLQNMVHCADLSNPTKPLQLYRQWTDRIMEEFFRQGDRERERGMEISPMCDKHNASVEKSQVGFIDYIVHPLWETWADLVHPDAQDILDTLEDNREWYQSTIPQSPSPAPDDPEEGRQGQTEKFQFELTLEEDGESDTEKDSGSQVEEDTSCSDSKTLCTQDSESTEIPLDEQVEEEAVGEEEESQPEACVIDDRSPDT
# Text: (§2) Additional pharmaceuticals used in the following examples are dobutamine (Hospira Inc., Lake Forest, Ill.), esmolol HCl (Mylan, Rockford, Ill.), MRS1754 (Tocris Bioscience, Bristol, UK), and Hespan (6% Hetastarch in 0.9% NaCl B. Braun Medical Inc., Bethlehem, Pa.).
# [6] = test system: murine heart; assay: Acute cardiovascular effects in intact mice; type: in vivo, mouse; settings: intravenous bolus 0.1, 0.5 mg/kg
# Procedure: (§3) To test this, mice were administered the same or higher intravenous bolus doses (0.1, 0.5 mg/kg) as used in dogs and rabbits, and studied using a similar preparation to the rabbit.
# [7] = test system: plasma cAMP and cGMP; assay: Plasma cAMP and cGMP by ELISA in dogs; type: in vivo, dog
# Procedure: Blood plasma is obtained from these animals, and cAMP and cGMP are assayed by ELISA.
# [8] = target: T1, r-hPDE1C (Homo sapiens, UniProt Q14123); assay: Ki for full-length recombinant PDE1C; type: biochemical
# T1 construct: Its Kis for full-length recombinant r-hPDE1A, 1B, and 1C are 34, 380, and 37 pM
# T1 sequence (Q14123 whole entry): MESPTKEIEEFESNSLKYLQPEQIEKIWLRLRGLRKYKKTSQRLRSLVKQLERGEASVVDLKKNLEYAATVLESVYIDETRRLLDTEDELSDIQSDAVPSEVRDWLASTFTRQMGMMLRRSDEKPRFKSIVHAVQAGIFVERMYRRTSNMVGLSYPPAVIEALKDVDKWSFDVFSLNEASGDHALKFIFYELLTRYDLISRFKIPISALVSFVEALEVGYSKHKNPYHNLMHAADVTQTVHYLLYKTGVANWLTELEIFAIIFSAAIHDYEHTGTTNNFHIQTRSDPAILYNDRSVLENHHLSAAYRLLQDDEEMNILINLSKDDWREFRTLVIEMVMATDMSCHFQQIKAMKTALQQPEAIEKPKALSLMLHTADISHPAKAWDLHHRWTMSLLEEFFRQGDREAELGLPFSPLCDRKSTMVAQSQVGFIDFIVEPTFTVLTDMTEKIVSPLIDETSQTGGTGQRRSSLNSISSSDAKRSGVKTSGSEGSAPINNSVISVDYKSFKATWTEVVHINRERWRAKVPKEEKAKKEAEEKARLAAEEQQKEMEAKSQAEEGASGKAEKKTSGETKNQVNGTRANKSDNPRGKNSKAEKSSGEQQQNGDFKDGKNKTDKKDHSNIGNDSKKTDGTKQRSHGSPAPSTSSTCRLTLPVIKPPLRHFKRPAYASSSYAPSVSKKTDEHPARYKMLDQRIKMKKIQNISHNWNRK
# Text: as §2
# [9] = Plasma level in mice; type: in vivo; settings: iv, mouse, 15 minutes after i.v. dosing
# Procedure: Rabbit dosing at 0.1 mg/kg i.v. yields plasma values of 213±88 ng/mL at 15 min. Mouse plasma levels 15 minutes after i.v. dosing was 334+/−74 ng/mL. Therapeutic levels are 100-300 ng/mL, and so analysis is presented after 120 min for P.O. and after 20 min for i.v. (somewhat sooner in rabbit and mouse due to faster kinetics).
# as §3
# [10] = test system: normal and failing canine hearts; assay: Conscious dog pressure-volume hemodynamic analysis, normal and failing hearts; type: in vivo
# Text: Dogs are studied in the conscious state before and after inducing dilated cardiomyopathy by tachypacing for two weeks at 200 bpm. […]
# Load insensitive indexes of contractility (dP/dtmax/IP and PRSW) increased.
# [11] = Compound 1 added after forskolin 1 μM
# [12] = agent added to non-saturating Iso
# [13] = agent alone: Cil 1 μM, Compound 1 1 μM, Iso non-saturating dose
# [14] = agent alone: Iso 50 nM, Compound 1 up to 1 mM, IBMX 100 μM
# [15] = control and HF dogs, 10 mg/kg oral, two hours
smiles,measurement,setting,value
"CN1C(=O)c2c(nn(Cc3ccc(-c4cccc(F)n4)cc3)c2Nc2ccccc2)N2C1=N[C@@H]1CCC[C@@H]12 [Compound 1, (6aR,9aS)-2-(4-(6-fluoropyridin-2-yl)benzyl)-5-methyl-3-(phenyl-amino)-5,6a,7,8,9,9a-hexahydrocyclopenta-[4,5]imidazo[1,2-a]pyrazolo[4,3-e]pyrimidin-4-(2H)-one monophosphate]",peak calcium transient,[1]; [11],remains unaltered
same,relaxation/calcium decay rates,[1]; [11],significantly increases
same,sarcomere shortening,[1]; [11],significantly increases
same,"shortening of calcium relaxation time constant, as share of the maximal achieved with IBMX",[1]; FSK+Compound 1 versus FSK+IBMX,67%
same,Ca2+ transient decay rate,[1]; agent added to Fsk 1 μM,enhanced the Ca2+ decay rate similarly to Cil
same,peak Ca2+ transient,[1]; agent added to Fsk 1 μM,no corresponding increase in peak Ca2+ transient
same,sarcomere shortening,[1]; agent added to Fsk 1 μM,sarcomere shortening rose as with Cil
same,peak-Ca2+,[1]; [12],no longer significantly different from pre-Iso baseline
same,sarcomere shortening,[1]; [12],did not change further
same,decay kinetics / relaxation times,[1]; [13],this was not observed
same,peak-Ca2+ transient,[1]; [13],this was not observed
same,percent sarcomere shortening,[1]; [13],this was not observed
same,contraction/calcium decay time or rates,[1]; [14],no effect
same,peak Ca2+ transient,[1]; [14],no effect
same,sarcomere shortening,[1]; [14],no effect
same,cardiac output,[2]; 0.1 mg/kg i.v. bolus alone,increases cardiac output
same,heart rate,[2]; 0.1 mg/kg i.v. bolus alone,modestly elevated heart rate
same,rise in end-systolic elastance,[2]; 0.1 mg/kg i.v. bolus alone,50%
same,rise in pre-load recruitable stroke work,[2]; 0.1 mg/kg i.v. bolus alone,50%
same,systemic resistance,[2]; 0.1 mg/kg i.v. bolus alone,lowered systemic resistance
same,systolic pressure,[2]; 0.1 mg/kg i.v. bolus alone,no change in systolic pressure
same,contractile and vasodilation effects,[2]; Compound 1 after esmolol,remain intact
same,heart rate,[2]; Compound 1 after esmolol,no longer increases HR
same,responses with heart rate fixed compared with heart rate allowed to change,[2]; atrially paced at ~20% above sinus node rate,nearly identical responses
same,whole cell cAMP,[3],substantially increased
same,concentration at 15 min,[4],213 ± 88 ng/mL
same,greater activity toward PDE1 isoforms compared with PDE4D,[5],> 1000 fold
same,hemodynamic or cardiac changes,[6],failed to show any significant hemodynamic or cardiac changes
same,plasma cAMP,"[7]; HF dogs, single drugs",not significantly changed
same,plasma cGMP,"[7]; all conditions, normal and HF models",remains unchanged
same,Ki,[8],0.037 nM
same,concentration at 15 min,[9],334 ng/mL
same,hemodynamic responses in all but heart rate,[10]; 0.01 mg/kg i.v.,negligible
same,hemodynamic responses,[10]; 0.1 mg/kg i.v.,"positive chronotropic, inotropic, lusitropic, and vasodilator responses were observed"
same,PV loop area (stroke work) and contractility,"[10]; 10 mg/kg Compound 1 added to 10 μg/kg/min dobutamine, control and failing hearts",further enhanced both
same,increase in heart rate,"[10]; HF animals, 10 mg/kg oral",blunted
same,augmentation of cardiac output,"[10]; HF dogs, 10 mg/kg oral, two hours",32%
same,LV preload (end-diastolic volume) or systolic pressure,[10]; [15],little change
same,contractility (end-systolic elastance),[10]; [15],increase in contractility
same,augmentation of cardiac output,"[10]; control dogs, 10 mg/kg oral, two hours",50%
same,"inotropy, lusitropy and vasodilation","[10]; heart failure dogs, 0.1 mg/kg i.v.",remained significantly improved
same,time to peak hemodynamic response,"[10]; intravenous, normal and HF dogs",5 to 10 min
same,heart rate,"[10]; normal dogs, 10 mg/kg oral",increased heart rate
same,relaxation (dP/dtmin and relaxation time constant tau),"[10]; normal dogs, 10 mg/kg oral",improved
same,systemic vascular resistance,"[10]; normal dogs, 10 mg/kg oral",reduced systemic vascular resistance
same,systolic blood pressure,"[10]; normal dogs, 10 mg/kg oral",without altering systolic blood pressure

# Source: patent US11839614B2, “Methods for treating or mitigating cardiotoxicity characterized by inhibition of adenosine A2 signaling and/or adenosine A2 receptor expression” (INTRA-CELLULAR THERAPIES, INC., priority 2018, dated 2023)
